Assay results: US9840510B1, “Pyrazolo[1,5-a]pyrimidinyl carboxamide compounds and their use in the treatment of medical disorders” (Lysosomal Therapeutics Inc., priority 2016, dated 2017)
Values after ≈ are worked out from the molar mass of the structure shown.

Test: Compound solubility in water
Assay type: physicochemical
With `Cc1cc(-c2cccc(C#N)c2)nc2c(C(=O)NC(C3CC3)C(F)(F)F)cnn12` (stereo not drawn) [III-72] the solubility was 0.1 µg/mL (≈ 0.25 µM). `Cc1cc(-c2cccc(C(N)=O)c2)nc2c(C(=O)NC(C3CC3)C(F)(F)F)cnn12` (stereo not drawn) [III-73] showed a solubility of 0.4 µg/mL (≈ 0.958 µM). `COCc1cc(-c2cccc(F)c2)nc2c(C(=O)NC(C)(C)C3CC3)cnn12` [III-74] showed a solubility of 0.8 µg/mL (≈ 2.09 µM). Compound `C#CC(C)(C)NC(=O)c1cnn2c(C)cc(-c3cccc(F)c3)nc12` [III-75] has a solubility of 0.6 µg/mL (≈ 1.78 µM). Work on `CCOc1cccc(-c2cc(C)n3ncc(C(=O)NC(C)C(F)(F)F)c3n2)c1` (stereo not drawn) [III-76] yielded a solubility of 0.2 µg/mL (≈ 0.51 µM). Work on `Cc1cc(-c2cccc(OC3CC3)c2)nc2c(C(=O)NC(C)C(F)(F)F)cnn12` (stereo not drawn) [III-77] yielded a solubility of 0.3 µg/mL (≈ 0.742 µM). `Cc1cc(NC2CC2)nc2c(C(=O)NC(C3CC3)C3CC3)cnn12` [III-78] showed a solubility of 5.6 µg/mL (≈ 17.2 µM). For `COCc1cc(-c2cccc(OC)c2)nc2c(C(=O)NC(C)(C)C3CC3)cnn12` [III-79], the solubility was 0.5 µg/mL (≈ 1.27 µM). Compound `Cc1cc(-c2cccc(F)c2)nc2c(C(=O)NC(C)(C)C(F)(F)F)cnn12` [III-80] has a solubility of 0.2 µg/mL (≈ 0.526 µM). `C#CC(C)(C)NC(=O)c1cnn2c(C)cc(-c3cccc(Cl)c3)nc12` [III-81] showed a solubility of 1.5 µg/mL (≈ 4.25 µM). Compound `C#CC(C)(C)NC(=O)c1cnn2c(C)cc(-c3cccc(OC4CC4)c3)nc12` [III-82] has a solubility of 1.5 µg/mL (≈ 4.01 µM). Compound `Cc1cc(-c2ccc3ocnc3c2)nc2c(C(=O)NC(C3CC3)C(F)(F)F)cnn12` (stereo not drawn) [III-83] has a solubility of 0.3 µg/mL (≈ 0.722 µM). Work on `Cc1cc(-c2ccc(F)nc2)nc2c(C(=O)NC(C3CC3)C(F)(F)F)cnn12` (stereo not drawn) [III-84] yielded a solubility of 0.8 µg/mL (≈ 2.03 µM). With `Cc1cc(-c2cccnc2F)nc2c(C(=O)NC(C3CC3)C(F)(F)F)cnn12` (stereo not drawn) [III-85] the solubility was 1 µg/mL (≈ 2.54 µM). `Cc1cc(-c2ccc(F)cc2)nc2c(C(=O)N[C@H](C)C3CC3)cnn12` [III-86] gave a solubility of 2.8 µg/mL (≈ 8.27 µM). With `Cc1cc(-c2cccnc2)nc2c(C(=O)N[C@H](C3CC3)C(F)(F)F)cnn12` [III-88] the solubility was 14.8 µg/mL (≈ 39.4 µM). Work on `Cc1cc(-c2cccnc2)nc2c(C(=O)N[C@@H](C3CC3)C(F)(F)F)cnn12` [III-89] yielded a solubility of 10.4 µg/mL (≈ 27.7 µM). Compound `COc1cccc(-c2cc(C)n3ncc(C(=O)N[C@H](C)C(F)(F)F)c3n2)c1` [III-90] has a solubility of 2 µg/mL (≈ 5.29 µM). `COc1cccc(-c2cc(C)n3ncc(C(=O)N[C@@H](C)C(F)(F)F)c3n2)c1` [III-91] showed a solubility of 1.7 µg/mL (≈ 4.49 µM). `Cc1cc(-c2cccc(F)c2)nc2c(C(=O)N[C@H](C)C3CC3)cnn12` [III-92] gave a solubility of 0.2 µg/mL (≈ 0.591 µM). Compound `Cc1cc(N2CCCC(F)(F)C2)nc2c(C(=O)N[C@H](C3CC3)C(F)(F)F)cnn12` [III-94] has a solubility of 0.6 µg/mL (≈ 1.44 µM). `Cc1cc(N2CCCC(F)(F)C2)nc2c(C(=O)N[C@@H](C3CC3)C(F)(F)F)cnn12` [III-95] gave a solubility of 1 µg/mL (≈ 2.4 µM). `C#CC(NC(=O)c1cnn2c(C)cc(-c3cccc(OC)c3)nc12)C(F)(F)F` (stereo not drawn) [III-96] gave a solubility of 2 µg/mL (≈ 5.15 µM). `COc1ccc(F)c(-c2cc(C)n3ncc(C(=O)N[C@H](C)C(F)(F)F)c3n2)c1` [III-97] gave a solubility of 0.2 µg/mL (≈ 0.505 µM). `COc1ccc(F)c(-c2cc(C)n3ncc(C(=O)N[C@@H](C)C(F)(F)F)c3n2)c1` [III-98] gave a solubility of 0.3 µg/mL (≈ 0.757 µM). For `C#CC(NC(=O)c1cnn2c(C)cc(-c3cccc(Cl)c3)nc12)C(F)(F)F` (stereo not drawn) [III-99], the solubility was 0.2 µg/mL (≈ 0.509 µM). In the case of `Cc1cc(-c2ccns2)nc2c(C(=O)N[C@H](C3CC3)C(F)(F)F)cnn12` [III-100], the solubility is reported as 0.9 µg/mL (≈ 2.36 µM). In the case of `Cc1cc(-c2ccns2)nc2c(C(=O)N[C@@H](C3CC3)C(F)(F)F)cnn12` [III-101], the solubility is reported as 1.3 µg/mL (≈ 3.41 µM). Work on `Cc1cc(-c2cccc(-c3ncc[nH]3)c2)nc2c(C(=O)NC(C3CC3)C(F)(F)F)cnn12` (stereo not drawn) [III-102] yielded a solubility of 0.4 µg/mL (≈ 0.908 µM). `Cc1cc(-c2cccc(Oc3ncccn3)c2)nc2c(C(=O)NC(C3CC3)C(F)(F)F)cnn12` (stereo not drawn) [III-103] showed a solubility of 0.8 µg/mL (≈ 1.71 µM). Work on `Cc1cc(-c2cccc3ncoc23)nc2c(C(=O)NC(C3CC3)C(F)(F)F)cnn12` (stereo not drawn) [III-104] yielded a solubility of 0.02 µg/mL (≈ 0.0481 µM). Compound `Cc1cc(-c2cccc3ocnc23)nc2c(C(=O)NC(C3CC3)C(F)(F)F)cnn12` (stereo not drawn) [III-106] has a solubility of 0.1 µg/mL (≈ 0.241 µM). In the case of `Cc1cc(-n2ccc(Cl)n2)nc2c(C(=O)NC(C3CC3)C(F)(F)F)cnn12` (stereo not drawn) [III-107], the solubility is reported as 0.1 µg/mL (≈ 0.251 µM). For `Cc1cc(-c2ccc3ocnc3c2)nc2c(C(=O)NC(C3CC3)C(F)(F)F)cnn12` (stereo not drawn) [III-108], the “Compound Solubility in Water” value was 0.3 µg/mL. Work on `Cc1cc(-c2ccc3ocnc3c2)nc2c(C(=O)N[C@H](C3CC3)C(F)(F)F)cnn12` [III-109] yielded a solubility of 0.5 µg/mL (≈ 1.2 µM). In the case of `Cc1cc(-c2ccc3ocnc3c2)nc2c(C(=O)N[C@@H](C3CC3)C(F)(F)F)cnn12` [III-110], the solubility is reported as 0.4 µg/mL (≈ 0.963 µM). For `Cc1cc(-c2cccc(F)c2)nc2c(C(=O)NC(C3CC3)C(F)(F)F)cnn12` (stereo not drawn) [III-111], the solubility was 0.07 µg/mL (≈ 0.178 µM). In the case of `Cc1cc(-c2ccc(F)nc2)nc2c(C(=O)NC(C3CC3)C(F)(F)F)cnn12` (stereo not drawn) [III-112], the “Compound Solubility in Water” value is reported as 0.8 µg/mL. With `Cc1cc(-c2cccnc2F)nc2c(C(=O)NC(C3CC3)C(F)(F)F)cnn12` (stereo not drawn) [III-113] the “Compound Solubility in Water” value was 1.0 µg/mL. With `Cc1cc(-c2cccnc2F)nc2c(C(=O)N[C@H](C3CC3)C(F)(F)F)cnn12` [III-114] the solubility was 2.1 µg/mL (≈ 5.34 µM). For `Cc1cc(-c2cccnc2F)nc2c(C(=O)N[C@@H](C3CC3)C(F)(F)F)cnn12` [III-115], the solubility was 1.9 µg/mL (≈ 4.83 µM). For `Cc1cc(-c2ccc(Cl)nc2)nc2c(C(=O)NC(C3CC3)C(F)(F)F)cnn12` (stereo not drawn) [III-116], the solubility was 1 µg/mL (≈ 2.44 µM).
